Measured values: paper PMC3454376, “Salidroside Improves Behavioral and Histological Outcomes and Reduces Apoptosis via PI3K/Akt Signaling after Experimental Traumatic Brain Injury” (PLoS ONE, 2012)

Test system: mice subjected to controlled cortical impact injury
Assay: Brain water content (brain edema) after CCI
Assay type: in vivo
Conditions: day 1, vehicle 84.5±1.2%
Protocol: All animal procedures were approved by the Animal Research Committee at Cheng Hsin General Hospital (Animal permit number […] 101-08), and all procedures complied with the Guide for the Care and Use of Laboratory Animals published by the US National Institutes of Health (NIH Publication No. 85-23, revised 1996). Animals were housed under a 12-h light/dark cycle and at constant temperature (21-25°C) and humidity (45-50%). They were allowed free access to pellet chow and water. TBI in mice was induced by a CCI injury model as previously described. Briefly, 8-week-old male C57BL/6 mice (weighing 22-25 g) were anesthetized through the use of intraperitoneal injection of sodium pentobarbital (65 mg/kg; Rhone Merieux, Harlow, UK) and placed in a stereotaxic frame. A 5 mm craniotomy was performed over the right parietal cortex, centered on the coronal suture and 0.1 mm lateral to the sagittal suture, and injury to dura was avoided. […] Body temperature was monitored throughout the surgery by a rectal probe; temperature was maintained at 37.0±0.5°C using a heated pad. […] To determine the optimal dose of salidroside, a pilot study was performed using 2 different doses (20 and 50 mg/kg) administered 10 min after injury, and neurological deficits and tissue damage were evaluated as the main outcomes. […]

## OC[C@H]1O[C@@H](OCCc2ccc(O)cc2)[C@H](O)[C@@H](O)[C@@H]1O [SALD, salidroside]
20 mg/kg ip 10 min after CCI, sham 80.7±0.6%, P<0.05
  brain water content, ipsilateral hemisphere: 81.0±0.6%
50 mg/kg ip 10 min after CCI, not significant
  brain water content, ipsilateral hemisphere: 82.2±1.1%
